The record followed here is ChEMBL document CHEMBL3112494, “Heterocyclic core analogs of a direct thrombin inhibitor” (Bioorg Med Chem Lett, 2014).

In one data set the target is Coagulation factor X (Homo sapiens, UniProt P00742). The experiment in a line: Inhibition of factor 10a (unknown origin).
Another data set addresses Cytochrome P450 2C9 (Homo sapiens, UniProt P11712). The experiment in a line: Inhibition of CYP2C9 (unknown origin) up to 50 uM. In kind it is ADME.
The next data set deals with Trypsin (Homo sapiens, UniProt P07477+P07478+P35030). The experiment in a line: Inhibition of trypsin (unknown origin). In kind it is protein assay.
In a further data set the target is T1, Coagulation factor XII (Homo sapiens, UniProt P00748).
T1 sequence (P00748 whole entry): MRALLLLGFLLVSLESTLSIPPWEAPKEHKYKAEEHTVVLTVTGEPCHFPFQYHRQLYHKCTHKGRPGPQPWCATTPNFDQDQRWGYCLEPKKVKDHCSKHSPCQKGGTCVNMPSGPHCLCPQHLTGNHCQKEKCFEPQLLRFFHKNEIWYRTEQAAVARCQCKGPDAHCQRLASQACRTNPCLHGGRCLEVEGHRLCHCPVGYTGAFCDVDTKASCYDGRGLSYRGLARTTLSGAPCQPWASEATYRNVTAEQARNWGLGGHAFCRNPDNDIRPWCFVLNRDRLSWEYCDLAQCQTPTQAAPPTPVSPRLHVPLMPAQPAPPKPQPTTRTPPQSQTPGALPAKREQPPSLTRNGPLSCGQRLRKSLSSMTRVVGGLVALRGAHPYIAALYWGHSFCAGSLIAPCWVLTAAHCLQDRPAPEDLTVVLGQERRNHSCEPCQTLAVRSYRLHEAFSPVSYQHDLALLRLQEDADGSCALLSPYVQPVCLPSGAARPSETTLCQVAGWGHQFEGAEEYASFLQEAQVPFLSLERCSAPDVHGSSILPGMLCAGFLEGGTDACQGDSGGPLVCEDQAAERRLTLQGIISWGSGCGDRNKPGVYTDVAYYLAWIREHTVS
The experiment in a line: Inhibition of factor 12a (unknown origin).

The next data set concerns the target Cytochrome P450 2D6 (Homo sapiens, UniProt P10635). The experiment in a line: Inhibition of CYP2D6 (unknown origin) up to 50 uM. In kind it is ADME.
The target in another data set is T2, Coagulation factor VII (Homo sapiens, UniProt P08709).
T2 sequence (P08709 whole entry): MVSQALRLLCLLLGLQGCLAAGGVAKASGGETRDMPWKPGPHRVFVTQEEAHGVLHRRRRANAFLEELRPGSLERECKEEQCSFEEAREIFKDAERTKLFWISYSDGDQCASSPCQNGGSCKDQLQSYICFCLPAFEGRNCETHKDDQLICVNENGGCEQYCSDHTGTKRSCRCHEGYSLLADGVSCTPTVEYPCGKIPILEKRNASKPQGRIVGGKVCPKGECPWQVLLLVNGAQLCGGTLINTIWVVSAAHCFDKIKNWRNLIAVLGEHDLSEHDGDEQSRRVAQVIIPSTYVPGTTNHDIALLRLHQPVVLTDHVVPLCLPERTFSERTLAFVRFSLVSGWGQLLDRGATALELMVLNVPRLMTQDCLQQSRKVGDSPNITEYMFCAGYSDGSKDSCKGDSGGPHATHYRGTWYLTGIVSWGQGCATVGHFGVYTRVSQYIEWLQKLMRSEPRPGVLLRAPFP
The experiment in a line: Inhibition of factor 7a (unknown origin).

The next data set concerns the target Cytochrome P450 3A4 (Homo sapiens, UniProt P08684). The data set is described as follows: Inhibition of CYP3A4 (unknown origin) up to 50 uM. It is filed as ADME.
The target of another data set is Coagulation factor IX (Homo sapiens, UniProt P00740). The data set is described as follows: Inhibition of factor 9a (unknown origin).
Data set [1] is described as follows: Half life in dog at 0.3 mg/kg, iv. It is filed as ADME, organism-based, Canis lupus familiaris. On the set-up: dose 0.3 mg/kg, route intravenous. Conditions: in vivo.
The nature of data set [2]: Metabolic stability in dog hepatocytes assessed as compound remaining after 90 mins. It is filed as ADME, cell-based, Canis lupus familiaris, Hepatocyte. Particulars: read-out: Stability.
A short description of data set [3]: AUC in dog at 0.3 mg/kg, iv. In kind it is ADME, organism-based, Canis lupus familiaris. Details: dose 0.3 mg/kg, route intravenous. Conditions: plasma.
A short description of data set [4]: Clearance in dog at 0.3 mg/kg, iv. It is filed as ADME, organism-based, Canis lupus familiaris. Details: dose 0.3 mg/kg, route intravenous. Particulars: in vivo.
The target of a further data set is Prothrombin (Homo sapiens, UniProt P00734). The experiment in a line: Inhibition of thrombin (unknown origin).
Data set [5] in a line: Volume of distribution in dog at 0.3 mg/kg, iv. In kind it is ADME, organism-based, Canis lupus familiaris. On the set-up: dose 0.3 mg/kg, route intravenous. Conditions: in vivo.

Bounds are passed on as bounds.

Coagulation factor X, sequence (P00742 41-179 limits assumed): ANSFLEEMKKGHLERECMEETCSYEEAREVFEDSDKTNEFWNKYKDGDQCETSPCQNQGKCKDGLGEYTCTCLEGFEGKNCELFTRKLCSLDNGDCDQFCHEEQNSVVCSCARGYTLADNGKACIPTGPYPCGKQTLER
Coagulation factor X, sequence (P00742 235-488 limits assumed): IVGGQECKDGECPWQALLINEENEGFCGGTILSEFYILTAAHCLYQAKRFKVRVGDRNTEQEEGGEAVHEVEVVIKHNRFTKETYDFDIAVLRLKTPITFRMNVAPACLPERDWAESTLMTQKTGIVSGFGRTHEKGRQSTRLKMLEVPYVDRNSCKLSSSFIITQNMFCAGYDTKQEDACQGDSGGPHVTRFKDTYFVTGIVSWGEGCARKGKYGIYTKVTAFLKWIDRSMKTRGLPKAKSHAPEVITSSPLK
Cytochrome P450 2D6, sequence (P10635 whole entry): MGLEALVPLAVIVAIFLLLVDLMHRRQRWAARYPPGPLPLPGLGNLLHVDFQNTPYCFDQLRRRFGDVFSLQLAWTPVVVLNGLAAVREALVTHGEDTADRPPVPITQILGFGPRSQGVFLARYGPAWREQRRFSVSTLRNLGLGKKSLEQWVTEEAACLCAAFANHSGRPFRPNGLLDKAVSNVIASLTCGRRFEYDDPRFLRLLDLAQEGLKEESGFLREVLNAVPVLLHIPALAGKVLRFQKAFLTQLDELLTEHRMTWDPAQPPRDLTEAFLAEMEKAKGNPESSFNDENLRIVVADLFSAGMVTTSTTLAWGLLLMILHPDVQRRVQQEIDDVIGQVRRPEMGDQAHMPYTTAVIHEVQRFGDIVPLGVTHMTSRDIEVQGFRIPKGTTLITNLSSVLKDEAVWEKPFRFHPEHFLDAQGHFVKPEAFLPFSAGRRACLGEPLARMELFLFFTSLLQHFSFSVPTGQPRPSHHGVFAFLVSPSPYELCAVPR
Cytochrome P450 3A4, sequence (P08684 whole entry): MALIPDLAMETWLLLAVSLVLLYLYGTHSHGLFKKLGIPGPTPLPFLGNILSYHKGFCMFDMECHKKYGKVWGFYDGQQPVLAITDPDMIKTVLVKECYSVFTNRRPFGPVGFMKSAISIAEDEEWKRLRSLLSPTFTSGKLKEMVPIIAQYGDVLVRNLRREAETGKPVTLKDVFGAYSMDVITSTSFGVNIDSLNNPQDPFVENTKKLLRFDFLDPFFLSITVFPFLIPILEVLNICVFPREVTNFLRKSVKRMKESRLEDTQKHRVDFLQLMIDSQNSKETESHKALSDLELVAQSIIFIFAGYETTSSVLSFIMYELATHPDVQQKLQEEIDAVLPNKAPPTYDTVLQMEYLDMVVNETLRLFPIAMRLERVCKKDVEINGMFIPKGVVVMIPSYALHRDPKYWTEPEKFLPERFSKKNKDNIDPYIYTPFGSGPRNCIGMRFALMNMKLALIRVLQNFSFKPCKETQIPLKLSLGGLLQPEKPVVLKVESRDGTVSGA
Cytochrome P450 2C9, sequence (P11712 whole entry): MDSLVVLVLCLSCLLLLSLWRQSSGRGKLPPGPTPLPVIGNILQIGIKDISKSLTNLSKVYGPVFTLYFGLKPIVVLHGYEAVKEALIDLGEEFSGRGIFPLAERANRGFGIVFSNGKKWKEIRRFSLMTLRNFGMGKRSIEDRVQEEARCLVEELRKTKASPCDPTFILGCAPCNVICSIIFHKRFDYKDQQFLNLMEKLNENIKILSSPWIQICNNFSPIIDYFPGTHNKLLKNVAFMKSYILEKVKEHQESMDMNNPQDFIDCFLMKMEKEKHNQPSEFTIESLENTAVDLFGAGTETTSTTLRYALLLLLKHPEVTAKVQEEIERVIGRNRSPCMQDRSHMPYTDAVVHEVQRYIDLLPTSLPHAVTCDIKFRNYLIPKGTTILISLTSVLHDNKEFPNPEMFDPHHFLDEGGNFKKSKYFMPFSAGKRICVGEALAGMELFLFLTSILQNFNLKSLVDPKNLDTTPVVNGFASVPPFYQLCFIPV
Coagulation factor IX, sequence (P00740 47-191 limits assumed): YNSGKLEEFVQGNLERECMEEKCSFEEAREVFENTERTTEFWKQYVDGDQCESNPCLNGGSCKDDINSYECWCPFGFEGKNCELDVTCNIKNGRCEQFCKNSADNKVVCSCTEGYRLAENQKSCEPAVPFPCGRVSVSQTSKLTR
Coagulation factor IX, sequence (P00740 227-461 limits assumed): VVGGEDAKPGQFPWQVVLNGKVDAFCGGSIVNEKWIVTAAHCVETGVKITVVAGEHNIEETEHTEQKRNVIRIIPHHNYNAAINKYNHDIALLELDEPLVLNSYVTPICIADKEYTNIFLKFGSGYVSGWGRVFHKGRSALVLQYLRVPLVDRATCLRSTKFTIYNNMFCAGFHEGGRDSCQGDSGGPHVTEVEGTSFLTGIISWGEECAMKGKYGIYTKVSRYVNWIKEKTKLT

Consider `CC(C)(C)[C@@H](O)C(=O)N1CCNC[C@H]1C(=O)NCc1cc(Cl)ccc1CN.O=C(O)C(F)(F)F`, for which the inhibition constant (Ki) (commonly a dissociation constant, usually derived from enzyme kinetics or from competition with a known ligand) at Coagulation factor X is 4.4 µM; on Trypsin, 15 µM; at Coagulation factor XII, above 15 µM; at Coagulation factor VII, above 15 µM; on Coagulation factor IX it was 15 µM. Also, the “inhibition (INH)” value on Cytochrome P450 2C9, on Cytochrome P450 2D6 and against Cytochrome P450 3A4 was “Not Active” throughout.

Take `CC(C)(C)[C@@H](O)C(=O)N1CC[S+]([O-])C[C@H]1C(=O)NCc1cc(Cl)ccc1CN.O=C(O)C(F)(F)F` (stereo partly specified): the “inhibition (INH)” value at Cytochrome P450 2C9, at Cytochrome P450 2D6 and against Cytochrome P450 3A4 was “Not Active” in each case.

Regarding `CC(C)(C)[C@@H](O)C(=O)N1CCC[C@H]1C(=O)NCc1cc(Cl)ccc1CN.O=C(O)C(F)(F)F`, the Ki is 1.4 µM on Coagulation factor X; 5.6 µM at Trypsin; above 15 µM at Coagulation factor XII; 0.0015 µM on Prothrombin; above 15 µM at Coagulation factor VII; above 3 µM on Coagulation factor IX. Also, the “inhibition (INH)” value against Cytochrome P450 2C9, at Cytochrome P450 2D6 and against Cytochrome P450 3A4 was “Not Active” each time. For the same molecule, in data set [1], the half-life (in general, the time needed for the level to fall by half in the phase considered) was 6.8 h. Further, the remaining at 1.5 h in [2] was 93%. In addition, the exposure (AUC) (in general, concentration integrated over time) in data set [3] was determined as 10 µM·h. Also, in data set [4], the clearance (commonly the rate of elimination divided by the concentration) came to 3.5 mL/min/kg. Besides, the Vd (commonly a proportionality between amount in the body and measured concentration, not a real space) in [5] is 1.9 L/kg.

As for `CC(C)(C)[C@@H](O)C(=O)N1CCSC[C@H]1C(=O)NCc1cc(Cl)ccc1CN.O=C(O)C(F)(F)F`, the Ki on Coagulation factor X is 0.9 µM; at Trypsin it was 9.4 µM; on Coagulation factor XII, above 15 µM; on Coagulation factor VII, above 15 µM. Besides, the “inhibition (INH)” value at Cytochrome P450 2C9, on Cytochrome P450 2D6 and against Cytochrome P450 3A4 was “Not Active” throughout. The molecule also gave a half-life in data set [1] of 2.7 h. Also, in [2], the remaining at 1.5 h worked out at 76%. The AUC in [3] was 1 µM·h. The same molecule displayed a clearance in [4] of 12.8 mL/min/kg. This molecule also yielded a Vd in data set [5] of 2.3 L/kg.

With `CN1CCN(C(=O)[C@H](O)C(C)(C)C)[C@H](C(=O)NCc2cc(Cl)ccc2CN)C1.O=C(O)C(F)(F)F`, the Ki was 3.7 µM on Coagulation factor X, 15 µM on Trypsin, above 15 µM on Coagulation factor XII and above 15 µM at Coagulation factor VII. In addition, the “inhibition (INH)” value at Cytochrome P450 2C9, at Cytochrome P450 2D6 and against Cytochrome P450 3A4 was “Not Active” in each case.

Take `CC(C)(C)[C@@H](O)C(=O)N1CCOC[C@H]1C(=O)NCc1cc(Cl)ccc1CN.O=C(O)C(F)(F)F`: the Ki was 3.9 µM at Coagulation factor X; 15 µM at Trypsin; above 15 µM on Coagulation factor XII; above 15 µM at Coagulation factor VII; 15 µM at Coagulation factor IX. Besides, the “inhibition (INH)” value against Cytochrome P450 2C9, against Cytochrome P450 2D6 and on Cytochrome P450 3A4 was “Not Active” in each case.

As for `CC(C)(C)[C@@H](O)C(=O)N1CCCC[C@H]1C(=O)NCc1cc(Cl)ccc1CN.O=C(O)C(F)(F)F`, the Ki is 1.8 µM at Coagulation factor X, 10.6 µM on Trypsin, above 15 µM on Coagulation factor XII and above 15 µM at Coagulation factor VII. Besides, the “inhibition (INH)” value at Cytochrome P450 2C9, on Cytochrome P450 2D6 and against Cytochrome P450 3A4 was “Not Active” throughout.

On to `CC(C)(C)[C@@H](O)C(=O)N1CCS(=O)(=O)C[C@H]1C(=O)NCc1cc(Cl)ccc1CN.O=C(O)C(F)(F)F`, for which the inhibition constant (Ki) at Coagulation factor X was 3.1 µM; on Trypsin, 15 µM; on Coagulation factor XII it was above 15 µM; on Coagulation factor VII, above 15 µM. The “inhibition (INH)” value against Cytochrome P450 2C9, against Cytochrome P450 2D6 and against Cytochrome P450 3A4 was “Not Active” throughout.
